Test results taken from patent US20240383910A1, “SMALL MOLECULE BTK DEGRADERS AND METHODS OF USE THEREOF” (Baylor College of Medicine, priority 2023, published 2024).
Values joined by “and” are separate entries in the source; they are usually repeats but may differ in a detail not shown here. Identical values can stand only once. Like-named read-outs stand apart in the source and are kept apart here.

What was measured:
[1] = target: T1, BTK (Homo sapiens, UniProt Q06187); assay: Western blotting for BTK in Ramos cells; type: cell-based; set-up: host or cells: Ramos; settings: Ramos cells, 40, 200 and 1000 nM, 24 h, Western blot
T1 sequence (Q06187 whole entry): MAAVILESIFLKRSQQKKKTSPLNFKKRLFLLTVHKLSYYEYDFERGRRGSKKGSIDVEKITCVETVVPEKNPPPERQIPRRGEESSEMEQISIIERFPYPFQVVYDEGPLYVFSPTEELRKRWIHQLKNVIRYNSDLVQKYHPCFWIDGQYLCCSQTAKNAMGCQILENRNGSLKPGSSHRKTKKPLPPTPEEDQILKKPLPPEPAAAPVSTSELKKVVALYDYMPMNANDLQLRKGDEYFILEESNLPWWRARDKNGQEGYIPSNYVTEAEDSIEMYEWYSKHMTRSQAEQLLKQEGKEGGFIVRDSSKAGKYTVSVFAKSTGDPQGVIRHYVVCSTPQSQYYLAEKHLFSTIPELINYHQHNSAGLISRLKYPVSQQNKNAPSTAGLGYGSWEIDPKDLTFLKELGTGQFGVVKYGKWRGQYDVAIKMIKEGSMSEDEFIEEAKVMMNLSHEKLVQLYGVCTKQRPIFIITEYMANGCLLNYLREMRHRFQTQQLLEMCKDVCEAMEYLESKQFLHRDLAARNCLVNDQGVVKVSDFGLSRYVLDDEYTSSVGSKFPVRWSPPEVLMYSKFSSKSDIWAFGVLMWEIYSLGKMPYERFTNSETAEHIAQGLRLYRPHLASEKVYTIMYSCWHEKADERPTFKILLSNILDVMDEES
Experimental: (§1) CC-220 is a IKZF1/3 degrader developed by Celgene and used for comparison.
(§2) In contrast, PS-3, whose warhead is further reduced compared with PS-2, loses its ability to function as either a BTK degrader or a potent IKZF1/3 molecular glue. To confirm this observation, BTK degradation induced by PS-1, PS-2, and PS-3 was tested in both a human B lymphocyte cell line Ramos and mouse BALB/c B cell lymphoma line A20, with DD-03-171 from the Gray group as a positive control (FIG. 5).

[2] = target: T2, BTK (Mus musculus, UniProt P35991); assay: Western blotting for BTK in A20 cells; type: cell-based; settings: A20 cells, 40, 200 and 1000 nM, 24 h, Western blot
T2 construct: host or cells: A20
T2 sequence (P35991 whole entry): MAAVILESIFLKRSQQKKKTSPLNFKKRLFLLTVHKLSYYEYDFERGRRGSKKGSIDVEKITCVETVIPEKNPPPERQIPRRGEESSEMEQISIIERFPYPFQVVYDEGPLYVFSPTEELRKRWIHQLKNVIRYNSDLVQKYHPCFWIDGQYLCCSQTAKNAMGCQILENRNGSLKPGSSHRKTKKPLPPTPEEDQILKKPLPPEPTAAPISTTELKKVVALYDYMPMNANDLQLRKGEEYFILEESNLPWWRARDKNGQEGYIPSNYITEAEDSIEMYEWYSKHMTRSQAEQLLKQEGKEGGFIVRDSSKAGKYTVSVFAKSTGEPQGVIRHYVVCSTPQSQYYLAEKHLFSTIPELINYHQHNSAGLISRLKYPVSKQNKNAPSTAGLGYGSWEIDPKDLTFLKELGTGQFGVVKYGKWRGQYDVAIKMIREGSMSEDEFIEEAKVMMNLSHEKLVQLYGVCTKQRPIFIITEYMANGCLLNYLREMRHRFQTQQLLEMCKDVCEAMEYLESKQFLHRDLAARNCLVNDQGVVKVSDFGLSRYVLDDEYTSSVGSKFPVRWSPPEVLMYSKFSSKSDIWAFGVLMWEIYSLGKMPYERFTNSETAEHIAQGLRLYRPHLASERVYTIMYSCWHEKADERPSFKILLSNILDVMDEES
Experimental: as §1, §2

[3] = system: MM.1S cells; assay: Alarma Blue cell viability assay, MM.1S cells; type: cell-based; settings: Homo sapiens, MM1.S, 120 h, read-out: IC50, cell growth inhibition
Text: (§3) Panel a. […] Panel b. […] Panel c. […] Panel d-e. […] Panel g.

[4] = target: T3, His-BTK (Homo sapiens, UniProt Q06187); assay: TR-FRET competition binding assay with BTK-BODIPY tracer; settings: for binding to BTK (result in words): TRFRET assay, up to 100 μM; for IC50: TR-FRET, 2 nM His-BTK, 150 nM BTK-BODIPY tracer, 2 h incubation
T3 construct: purchased SignalChem B10-10H-10
T3 sequence (Q06187 whole entry): as the sequence (Q06187 whole entry) above
Experimental: (§4) Panels a-b. […] Panel c. […] Panel d. […] Panel e. […] Panel f.
Time-resolved fluorescence resonance energy transfer (TR-FRET) assay was carried out to evaluate the binding of indicated compounds and BTK by competition with a BODIPY-FL labeled BTK tracer (See FIG. 1, BTK TR-FRET tracer). The assay was performed in 20 μL assay buffer (50 mM Tris, pH7.5, 0.1% Triton X-100, 0.01% BSA, and 1 mM DTT) with 0.3 nM Tb-anti-His (Cisbio, Cat. No. 61HI2TLA), 2 nM His-BTK (SignalChem, Cat. No. […] Unless specified otherwise, all assays were performed in triplicates. The assay mixtures were incubated at room temperature in the dark for 120 min, unless specified otherwise, and the signals were collected using a BioTek Synergy H1 microplate reader to measure the fluorescence emission ratio ([…]) of each well, using a 340-nm excitation filter, a 100-μs delay, and a 200-μs integration time. Raw data from the plate reader were used directly for analysis. The curve-fitting software GraphPad Prism 9 was used to generate graphs and curves and to determine IC50 values.
To measure the binding affinities between PROTACs and BTK, a time-resolved fluorescence resonance energy transfer (TR-FRET) competition binding assay was developed. A BTK tracer was synthesized by conjugating an ibrutinib-based reversible noncovalent binder with the BODIPY-FL dye (FIG. 1). […] In the presence of the BTK tracer, competition assays were performed to measure the binding affinities between BTK and its inhibitors and PROTACs. […] The very weak BTK binding affinities for PS-RC-1, PS-RC-2, PS-RC-3 and PS-RC-4 explain their minimal BTK degradation effects in cells and further support that the observed growth inhibitory effect of PS-RC-1 in Mino cells is unrelated to the BTK pathway.

[5] = system: Mino cells; assay: cells; settings: Homo sapiens, 72 h
Text: (§7) The cell viabilities were quantified using an Alarma Blue assay.
(§8) Dataset represents an average of n=3 replicates.

[6] = system: Jeko-1 cells; assay: Alarma Blue cell viability assay, Jeko-1 cells; type: cell-based; settings: 72 h
[7] = system: Mino cells; settings: Mino cells pretreated with PS-RC-Ctrl 2 and 10 μM for 2 h
Text: as §7, §8

[8] = target: T1, BTK; assay: Western blotting for BTK in Mino cells; type: cell-based; set-up: host or cells: Mino; settings: up to 1000 nM, 24 h, Western blot
Experimental: Mino cells were seeded into the wells of six-well plates at the density of 5×10^5 cells per mL in 2 mL of complete RPMI-1640 culture medium. After overnight adaptation, cells were treated with serially diluted compounds (from 1,000-1.6 nM, 5-fold dilution) for 24 hours. After treatment, whole cell lysates for immunoblotting were prepared by pelleting Mino cells at 4° C. and 200×g for 5 minutes. The resulting cell pellets were washed once with ice-cold PBS and lysed in 1×RIPA lysis buffer (Alfa Aesar, Cat. No. J62524) supplemented with protease and phosphatase inhibitor cocktail (Thermo Fisher, Cat. No. 78430). Lysates were centrifuged at 15,000×g for 10 min at 4° C. and protein concentrations were assessed using BCA assay (Pierce, Cat. No. 23225). Same amounts of protein (30 μg) for each sample were loaded onto sodium dodecyl sulfate-polyacrylamide gel, separated by electrophoresis (Bio-Rad) at 120 V for 1.5 h and transferred to PVDF membrane using a Transblot Turbo system (Bio-Rad). After blocking for 1 h at room temperature in 1% BSA-TBST, the membranes were immunoblotted with the specified primary antibodies at the dilution of 1:1000 in TBST (Cell Signaling Technology: anti-BTK Cat. No. 8547, anti-IKZF1 Cat. No. 14859, anti-IKZF3 Cat. No. 15103, anti-β-actin Cat. No. 4570, Proteintech: anti-GSPT1, Cat. No. 10763-1-AP) overnight at 4° C. and the HRP-conjugated secondary antibodies (Cell Signaling, Cat. No. 7074, 1:1000 in TBST) for 1 h at room temperature. Imaging was performed using the ECL Prime chemiluminescent Western blot detection reagents (Kindle Biosciences, Cat. No. R1100) by visualization of the blots with an Imager (Kindle Biosciences, Cat. No. D1001). All Western blots were subsequently processed and quantified with Imager software ImageJ and protein level was normalized to the B-actin loading controls.

[9] = system: Rec-R cells; assay: Alarma Blue cell viability assay, Rec-R cells; type: cell-based; settings: 72 h
[10] = target: T4, GSPT1 (Homo sapiens, UniProt P15170+Q96SW2); assay: Western blotting for GSPT1 in Mino cells; type: cell-based; settings: up to 1000 nM, 24 h, Western blot
T4 construct: host or cells: Mino
T4 sequence (P15170 whole entry): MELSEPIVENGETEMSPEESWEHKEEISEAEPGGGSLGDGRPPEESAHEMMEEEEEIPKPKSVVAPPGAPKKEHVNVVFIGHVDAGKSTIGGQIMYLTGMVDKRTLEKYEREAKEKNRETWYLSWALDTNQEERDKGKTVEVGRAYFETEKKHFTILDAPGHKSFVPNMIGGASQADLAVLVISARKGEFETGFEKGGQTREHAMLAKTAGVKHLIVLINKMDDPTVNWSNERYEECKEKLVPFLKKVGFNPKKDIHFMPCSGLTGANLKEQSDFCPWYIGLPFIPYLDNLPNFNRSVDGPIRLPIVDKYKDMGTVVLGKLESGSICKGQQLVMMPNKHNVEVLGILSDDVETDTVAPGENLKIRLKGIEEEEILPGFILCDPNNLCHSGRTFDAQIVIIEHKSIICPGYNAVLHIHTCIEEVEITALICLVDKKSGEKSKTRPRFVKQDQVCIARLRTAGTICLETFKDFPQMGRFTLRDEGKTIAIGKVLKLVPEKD
T4 sequence (Q96SW2 whole entry): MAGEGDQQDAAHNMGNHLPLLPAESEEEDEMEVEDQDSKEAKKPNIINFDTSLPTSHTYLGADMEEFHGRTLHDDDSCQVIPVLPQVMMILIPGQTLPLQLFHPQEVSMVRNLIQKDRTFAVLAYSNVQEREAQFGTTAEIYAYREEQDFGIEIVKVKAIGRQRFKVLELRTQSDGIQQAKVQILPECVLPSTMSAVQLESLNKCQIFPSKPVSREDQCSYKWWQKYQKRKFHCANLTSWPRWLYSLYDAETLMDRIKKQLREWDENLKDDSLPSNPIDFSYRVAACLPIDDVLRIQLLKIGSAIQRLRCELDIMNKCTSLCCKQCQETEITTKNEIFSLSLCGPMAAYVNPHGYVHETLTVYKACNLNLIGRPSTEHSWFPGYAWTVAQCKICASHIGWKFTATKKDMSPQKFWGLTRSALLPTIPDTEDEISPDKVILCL
T4 sequence (Q16531 whole entry partner): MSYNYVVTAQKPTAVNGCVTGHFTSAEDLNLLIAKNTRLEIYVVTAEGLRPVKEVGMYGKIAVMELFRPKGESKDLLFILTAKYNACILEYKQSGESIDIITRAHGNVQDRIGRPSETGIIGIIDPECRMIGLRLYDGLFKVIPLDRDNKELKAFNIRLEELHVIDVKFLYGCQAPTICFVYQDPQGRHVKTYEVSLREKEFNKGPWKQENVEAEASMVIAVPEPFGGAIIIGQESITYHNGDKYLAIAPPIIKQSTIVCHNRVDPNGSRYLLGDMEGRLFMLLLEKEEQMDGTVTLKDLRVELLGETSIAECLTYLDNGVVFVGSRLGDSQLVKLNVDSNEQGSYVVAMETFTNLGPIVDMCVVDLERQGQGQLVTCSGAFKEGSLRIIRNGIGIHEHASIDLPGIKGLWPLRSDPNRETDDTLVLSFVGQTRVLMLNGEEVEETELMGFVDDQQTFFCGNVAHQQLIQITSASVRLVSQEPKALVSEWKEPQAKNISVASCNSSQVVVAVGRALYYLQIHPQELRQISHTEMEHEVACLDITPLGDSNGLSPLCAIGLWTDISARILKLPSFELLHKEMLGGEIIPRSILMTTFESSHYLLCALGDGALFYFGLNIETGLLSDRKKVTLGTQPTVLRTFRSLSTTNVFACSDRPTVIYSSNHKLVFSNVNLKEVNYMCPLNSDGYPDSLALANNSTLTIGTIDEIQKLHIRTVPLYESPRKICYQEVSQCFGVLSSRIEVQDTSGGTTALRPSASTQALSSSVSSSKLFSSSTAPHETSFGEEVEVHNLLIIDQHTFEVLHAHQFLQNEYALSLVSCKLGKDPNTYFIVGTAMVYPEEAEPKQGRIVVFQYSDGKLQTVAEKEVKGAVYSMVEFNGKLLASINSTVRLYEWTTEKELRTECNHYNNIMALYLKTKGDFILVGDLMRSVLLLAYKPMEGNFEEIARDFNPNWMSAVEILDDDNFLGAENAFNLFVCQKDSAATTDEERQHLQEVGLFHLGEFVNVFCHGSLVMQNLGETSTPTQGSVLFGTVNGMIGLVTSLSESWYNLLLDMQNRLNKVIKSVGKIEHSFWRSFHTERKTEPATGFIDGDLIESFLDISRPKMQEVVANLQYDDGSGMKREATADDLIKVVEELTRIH
Experimental: as §3
Mino cells were seeded into the wells of six-well plates at the density of 5×10^5 cells per mL in 2 mL of complete RPMI-1640 culture medium. After overnight adaptation, cells were treated with serially diluted compounds (from 1,000-1.6 nM, 5-fold dilution) for 24 hours. After treatment, whole cell lysates for immunoblotting were prepared by pelleting Mino cells at 4° C. and 200×g for 5 minutes. The resulting cell pellets were washed once with ice-cold PBS and lysed in 1×RIPA lysis buffer (Alfa Aesar, Cat. No. J62524) supplemented with protease and phosphatase inhibitor cocktail (Thermo Fisher, Cat. No. 78430). Lysates were centrifuged at 15,000×g for 10 min at 4° C. and protein concentrations were assessed using BCA assay (Pierce, Cat. No. 23225). Same amounts of protein (30 μg) for each sample were loaded onto sodium dodecyl sulfate-polyacrylamide gel, separated by electrophoresis (Bio-Rad) at 120 V for 1.5 h and transferred to PVDF membrane using a Transblot Turbo system (Bio-Rad). […] All Western blots were subsequently processed and quantified with Imager software ImageJ and protein level was normalized to the B-actin loading controls.

[11] = target: T5, IKZF3-nLuc (Homo sapiens, UniProt Q96SW2+Q9UKT9); assay: IKZF3-nLuc endpoint degradation assay in HEK-293T cells; type: cell-based; settings: HEK-293T, read-out: IKZF3-nLuc Endpoint Dmax
T5 construct: Addgene (vector) HsCD00513042; pLenti6.2-ccdB-Nanoluc 87078; host or cells: HEK-293T17
T5 sequence (Q9UKT9 whole entry): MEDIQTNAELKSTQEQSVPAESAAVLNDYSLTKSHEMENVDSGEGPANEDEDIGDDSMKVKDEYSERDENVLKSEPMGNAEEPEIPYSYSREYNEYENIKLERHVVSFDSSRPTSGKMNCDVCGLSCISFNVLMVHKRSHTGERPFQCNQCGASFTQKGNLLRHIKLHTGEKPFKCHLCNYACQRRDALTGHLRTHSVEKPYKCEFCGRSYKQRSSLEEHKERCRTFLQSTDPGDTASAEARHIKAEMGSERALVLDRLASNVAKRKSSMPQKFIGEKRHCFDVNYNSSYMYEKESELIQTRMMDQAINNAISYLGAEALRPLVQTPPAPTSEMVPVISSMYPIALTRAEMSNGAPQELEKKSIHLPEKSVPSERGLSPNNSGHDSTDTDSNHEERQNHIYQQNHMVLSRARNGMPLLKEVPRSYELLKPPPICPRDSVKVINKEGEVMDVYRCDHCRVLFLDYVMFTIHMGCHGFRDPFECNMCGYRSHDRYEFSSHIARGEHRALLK
T5 sequence (Q96SW2 whole entry): as the sequence (Q96SW2 whole entry) above
T5 sequence (Q16531 whole entry partner): as the sequence (Q16531 whole entry partner) above
Experimental: as §3
(§5) The nanoluc activity was determined using the furimazine substrate (Promega, Cat. No. N1110). Briefly, after 4 h incubation of indicated compounds, cells were directly lysed by addition of 100 μL of nanoluciferase detection solution, containing lysis buffer and furimazine (1/50 dilution). For the 24-hour treatment group, the old medium was replaced with 100 μL fresh opti-MEM, followed by the addition of equal volume of lysis buffer plus furimazine (1/50 dilution).

[12] = target: T6, IKZF1-nLuc (Homo sapiens, UniProt Q13422+Q96SW2); assay: IKZF1-nLuc endpoint degradation assay in HEK-293T cells; type: cell-based; settings: HEK-293T, read-out: IKZF1-nLuc Endpoint Dmax
T6 construct: Addgene (vector) HsCD00512327; pLenti6.2-ccdB-Nanoluc 87078; host or cells: HEK-293T17
T6 sequence (Q13422 whole entry): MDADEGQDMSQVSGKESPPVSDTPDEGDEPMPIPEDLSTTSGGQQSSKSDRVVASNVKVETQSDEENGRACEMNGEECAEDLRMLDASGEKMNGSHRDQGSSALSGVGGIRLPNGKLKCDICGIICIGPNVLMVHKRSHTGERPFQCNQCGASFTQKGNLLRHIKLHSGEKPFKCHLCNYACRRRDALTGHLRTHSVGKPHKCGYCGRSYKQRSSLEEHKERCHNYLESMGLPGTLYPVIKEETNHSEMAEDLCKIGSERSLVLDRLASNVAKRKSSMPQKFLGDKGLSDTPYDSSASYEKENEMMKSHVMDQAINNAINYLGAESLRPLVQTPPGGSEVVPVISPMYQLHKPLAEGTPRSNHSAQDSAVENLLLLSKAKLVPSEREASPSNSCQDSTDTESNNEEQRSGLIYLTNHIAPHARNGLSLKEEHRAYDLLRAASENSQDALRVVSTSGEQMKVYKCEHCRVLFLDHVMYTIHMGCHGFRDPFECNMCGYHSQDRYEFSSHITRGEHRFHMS
T6 sequence (Q96SW2 whole entry): as the sequence (Q96SW2 whole entry) above
T6 sequence (Q16531 whole entry partner): as the sequence (Q16531 whole entry partner) above
Experimental: as §3, §5

[13] = target: T7, IKZF1 (Homo sapiens, UniProt Q13422+Q96SW2); assay: Western blotting for IKZF1 in Mino cells; type: cell-based; settings: 24 h, Western blot, read-out: IKZF1-WB Endpoint Dmax
T7 construct: host or cells: Mino
T7 sequence (Q13422 whole entry): as the sequence (Q13422 whole entry) above
T7 sequence (Q96SW2 whole entry): as the sequence (Q96SW2 whole entry) above
T7 sequence (Q16531 whole entry partner): as the sequence (Q16531 whole entry partner) above
Experimental: as §3
(§6) After treatment, whole cell lysates for immunoblotting were prepared by pelleting Mino cells at 4° C. and 200×g for 5 minutes. […] Imaging was performed using the ECL Prime chemiluminescent Western blot detection reagents (Kindle Biosciences, Cat. No. R1100) by visualization of the blots with an Imager (Kindle Biosciences, Cat. No. D1001). All Western blots were subsequently processed and quantified with Imager software ImageJ and protein level was normalized to the B-actin loading controls.

[14] = target: T6, IKZF1-nLuc; assay: IKZF1-nLuc degradation kinetics assay in HEK-293T cells; type: cell-based; settings: HEK-293T, read-out: IKZF1-nLuc Degradation Kinetics Dmax
Text: as §3

[15] = target: T8, IKZF3 (Homo sapiens, UniProt Q96SW2+Q9UKT9); assay: Western blotting for IKZF3 in Mino cells; type: cell-based; settings: 24 h, Western blot, read-out: IKZF3-WB Endpoint Dmax
T8 construct: host or cells: Mino
T8 sequence (Q9UKT9 whole entry): as the sequence (Q9UKT9 whole entry) above
T8 sequence (Q96SW2 whole entry): as the sequence (Q96SW2 whole entry) above
T8 sequence (Q16531 whole entry partner): as the sequence (Q16531 whole entry partner) above
Experimental: as §3, §6

[16] = target: T5, IKZF3-nLuc; assay: IKZF3-nLuc degradation kinetics assay in HEK-293T cells; type: cell-based; settings: HEK-293T, read-out: IKZF3-nLuc Degradation Kinetics Dmax
Text: as §3

[17] = system: MOLM-14 cells; assay: Alarma Blue cell viability assay, MOLM14 cells; type: cell-based; settings: Homo sapiens, 72 h, read-out: IC50, cell growth inhibition
Text: as §4

In the case of `O=C1CCC(N2C(=O)c3cccc(NCC(=O)N4CCN(c5ccc(Nc6nc(Oc7ccccc7)c7occc7n6)cc5)CC4)c3C2=O)C(=O)N1` (stereo not shown) [PS-1, 2-(2,6-Dioxopiperidin-3-yl)-4-((2-oxo-2-(4-(4-((4-phenoxyfuro[3,2-d]pyrimidin-2-yl)amino)phenyl)piperazin-1-yl)ethyl)amino)isoindoline-1,3-dione], the “BTK degradation (result in words)” value [1] is reported as “very weak or no BTK degradation”, the “BTK degradation (result in words)” value [2] is reported as “very weak or no BTK degradation” and the IC50 [3] is reported as 3 nM. The “binding to BTK (result in words)” value [4] was “almost no binding to BTK” and the IC50 ([5]; read-out: IC50, cell growth inhibition / cell viability, Mino cells, 72 h) was 16 nM.
In the case of `CC(C)(C)/C=C(\C#N)C(=O)Nc1cccc(Oc2nc(Nc3ccc(N4CCN(C(=O)CNc5cccc6c5C(=O)N(C5CCC(=O)NC5=O)C6=O)CC4)cc3)nc3ccoc23)c1` (stereo not shown) [PS-RC-1, (E)-2-cyano-N-(3-((2-((4-(4-((2-(2,6-dioxopiperidin-3-yl)-1,3-dioxoisoindolin-4-yl)glycyl)piperazin-1-yl)phenyl)amino)furo[3,2-d]pyrimidin-4-yl)oxy)phenyl)-4,4-dimethylpent-2-enamide], the “response of cell growth to compound” value [6] is reported as “poorly respond”, the “IC50 shift upon PS-RC-Ctrl pre-treatment” value [7] is reported as “An appreciable IC50 shift was not observed” and the “BTK degradation (result in words)” value [8] is reported as “none of the tested PROTACs induce appreciable BTK degradation”. The “response of cell growth to compound” value [9] was “poorly respond” and the “GSPT1 degradation (result in words)” value [10] was “does not degrade GSPT1”.
`Nc1cccc2c1C(=O)N(C1CCC(=O)NC1=O)C2=O` (stereo not shown) [Pomalidomide, reference compound] gave a Dmax [11] of 94%, a Dmax [12] of 90% and a Dmax [13] of 96%. The Dmax at 0.04 µM [14] was 53%, the Dmax at 0.2 µM [14] was 80% and the Dmax [15] was 96%. The Dmax at 0.04 µM [16] was 52%, the Dmax at 0.2 µM [16] was 64% and the “response of cell growth to compound” value [6] was “only Mino cells are responsive”. The IC50 ([5]; read-out: IC50, cell growth inhibition / cell viability) was 329 nM and the “response of cell growth to compound” value [9] was “only Mino cells are responsive”.
With `C=CC(=O)Nc1cccc(Oc2nc(Nc3ccc(N4CCN(C)CC4)cc3)nc3ccoc23)c1` [Poseltinib] the IC50 [17] was 2900 nM, the IC50 [4] was 1.21 nM and the IC50 ([4]; listed as poseltinib) was 1.1 nM and 1.2 nM. The “binding to BTK (result in words)” value [4] was “binding affinity in the nM range”.
